Test results reported in US10385031B2, “Substituted piperazines as selective HDAC1,2 inhibitors” (Regenacy Pharmaceuticals, LLC, priority 2016, dated 2019).

How the values were obtained:
HDAC1 = HDAC1 (Homo sapiens (Human), UniProt Q13547); assay: HDAC enzyme assay HDAC1; type: biochemical
HDAC2 = HDAC2 (Homo sapiens (Human), UniProt Q92769); assay: HDAC enzyme assay HDAC2; type: biochemical
Method: Compounds for testing were diluted in DMSO to 50 fold the final concentration and a ten-point three-fold dilution series was made. The compounds were diluted in assay buffer (50 mM HEPES, pH 7.4, 100 mM KCl, 0.001% Tween-20, 0.05% BSA, 20 μM TCEP) to 6-fold their final concentration. The HDAC enzymes (purchased from BPS Biosciences) were diluted to 1.5-fold their final concentration in assay buffer. The tripeptide substrate and trypsin at 0.05 μM final concentration were diluted in assay buffer at 6-fold their final concentration. The final enzyme concentrations used in these assays were 3.3 ng/ml (HDAC1), 0.2 ng/ml (HDAC2) and 0.08 ng/ml (HDAC3). The final substrate concentrations used were 16 μM (HDAC1), 10 μM (HDAC2) and 17 μM (HDAC3).
Five μl of compounds and 20 μl of enzyme were added to wells of a black, opaque 384 well plate in duplicate. Enzyme and compound were incubated together at room temperature for 10 minutes. Five μl of substrate was added to each well, the plate was shaken for 60 seconds and placed into a Victor 2 microtiter plate reader. The development of fluorescence was monitored for 60 min and the linear rate of the reaction was calculated. The IC50 was determined using Graph Pad Prism by a four parameter curve fit.

HDAC3 = HDAC3 (Homo sapiens (Human), UniProt O15379); assay: HDAC enzyme assay HDAC3; type: biochemical
Method: Compounds for testing were diluted in DMSO to 50 fold the final concentration and a ten-point three-fold dilution series was made. The compounds were diluted in assay buffer (50 mM HEPES, pH 7.4, 100 mM KCl, 0.001% Tween-20, 0.05% BSA, 20 μM TCEP) to 6-fold their final concentration. The HDAC enzymes (purchased from BPS Biosciences) were diluted to 1.5-fold their final concentration in assay buffer. The tripeptide substrate and trypsin at 0.05 μM final concentration were diluted in assay buffer at 6-fold their final concentration. The final enzyme concentrations used in these assays were 3.3 ng/ml (HDAC1), 0.2 ng/ml (HDAC2) and 0.08 ng/ml (HDAC3). The final substrate concentrations used were 16 μM (HDAC1), 10 μM (HDAC2) and 17 μM (HDAC3). Five μl of compounds and 20 μl of enzyme were added to wells of a black, opaque 384 well plate in duplicate. Enzyme and compound were incubated together at room temperature for 10 minutes. Five μl of substrate was added to each well, the plate was shaken for 60 seconds and placed into a Victor 2 microtiter plate reader. The development of fluorescence was monitored for 60 min and the linear rate of the reaction was calculated. The IC50 was determined using Graph Pad Prism by a four parameter curve fit. In Table 4 below, letter designations are defined as follows: […]

[1] = Rat pharmacokinetics, cassette dosing (IV and PO); type: in vivo; details: rat, plasma, male SD rats
Method: Male SD rats were fasted overnight. Compounds of the invention were dissolved in dimethyl acetamide at 10 times the final concentration, then Solutol HS 15 (BASF) was added to a final concentration of 10%. Finally 80% saline was added and vortexed to achieve a clear solution. For the IV dosing three animals were injected via the foot dorsal vein with 1 mg/kg compound. For the PO dosing 5 mg/kg of compound was delivered by oral gavage. Blood was collected via the tail vein into K2EDTA tubes at 5 minutes, 15 minutes, 30 minutes, 1 hour, 2 hours, 4 hours, 8 hours and 24 hours after dosing. The blood was centrifuged at 2000 g for 5 minutes at 4° C. to obtain plasma. The plasma was extracted with acetonitrile and the level of compound was analyzed by LC/MS/MS. The level of compound in plasma was calculated from a standard curve in rat plasma. The IV clearance (L/h/kg) and area under the curve (h*ng/mL) were calculated using WinNonLin software. The dose adjusted area under the curve for the IV and oral dosing were used to calculate the oral bioavailability.
Pharmacokinetic properties were assessed in a rat cassette dosing experiment. The IV clearance (IV Clr.) is in units of L/hr/kg. The oral maximum plasma concentration (PO Cmax) is in units of ng/ml. The oral plasma half-life (PO T½) is in units of hours. The oral area under the curve (PO AUC) is in units of hours*ng/ml. The fraction absorbed by the oral route (F %) is a percentage of the oral area under the curve to the IV area under the curve, dose adjusted.

hERG = hERG (Homo sapiens (Human), UniProt Q12809); assay: hERG inhibition, whole-cell patch clamp; type: cell-based; details: HEK293 cells stably transfected with hERG
Method: For hERG inhibition assays, the cells used were HEK293 cells stably transfected with hERG (cell line obtained from Cytocentrics Inc. 3463 Magic Drive San Antonio, Tex. 78229). Composition of External Solution: NaCl, 137 mM; KCl, 4 mM; MgCl2, 1.0 mM; CaCl2, 1.8 mM; HEPES 10 mM; Dextrose 11 mM; Adjusted to a pH of 7.4 with NaOH. Composition of Internal Solution: KCl, 130.0 mM; MgCl2, 1.0 mM; HEPES, 5.0 mM; EGTA, 5.0 mM; NaCl 7.0 mM. Adjusted to a pH of 7.2 using KOH. Test Concentrations: 0.1, 1, 10, 100 μM. Vehicle: DMSO. Experiments were performed at 34+/−1° C. Current was recorded using the whole-cell patch clamp technique on the Cytopatch automated platform. hERG current was elicited with the following voltage protocol: hERG current amplitude was measured as the peak current at −50 mV (tail current). […] Each cell served as its own control. Data are presented as the IC50 calculated by non-linear regression analysis.

[2] = system: CYP1A2, CYP2C9, CYP2C19, CYP3A4, CYP2D6; assay: Cyp inhibition in human liver microsomes (all isozymes); type: in vitro ADME
Method: For Cyp inhibition, human liver microsomes from BD Gentest were incubated with Compound 028 or Compound 032 (10, 3.33, 1.11, 0.37, 0.12, 0.04, 0.01 μM) and substrate (CYP1A2: Phenacetin at 30 μM; CYP2C9: Diclofenac at 10 μM; CYP2C19: S-Mephenytoin at 35 μM; CYP3A4: Midazolam at 5 μM and Testosterone at 80 μM; CYP2D6: Bufuralol at 10 μM) for the following incubation times: CYP1A2, 2C9, 2D6: 10 minutes, 37° C.; CYP2C19: 45 minutes, 37° C.; CYP3A4: 5 minutes, 37° C. Substrate conversion was measured by liquid chromatography/mass spectrometry/mass spectrometry (LC/MS/MS). Inhibition was calculated by curve fitting in Graph Pad Prism.

Sequence of HDAC1 (Q13547 whole entry): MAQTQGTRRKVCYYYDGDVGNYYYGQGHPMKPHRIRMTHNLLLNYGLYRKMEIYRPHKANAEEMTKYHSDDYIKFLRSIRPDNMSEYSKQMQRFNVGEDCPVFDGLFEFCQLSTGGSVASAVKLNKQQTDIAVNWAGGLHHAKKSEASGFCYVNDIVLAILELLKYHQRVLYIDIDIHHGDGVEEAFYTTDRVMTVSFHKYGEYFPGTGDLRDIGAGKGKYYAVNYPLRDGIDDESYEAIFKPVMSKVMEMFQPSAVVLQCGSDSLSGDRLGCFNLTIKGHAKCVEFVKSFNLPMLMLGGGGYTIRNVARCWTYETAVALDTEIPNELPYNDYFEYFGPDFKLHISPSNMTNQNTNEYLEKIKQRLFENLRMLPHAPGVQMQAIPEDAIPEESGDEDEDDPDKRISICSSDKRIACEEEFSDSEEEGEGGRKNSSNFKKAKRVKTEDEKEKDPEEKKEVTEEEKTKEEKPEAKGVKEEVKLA
Sequence of HDAC3 (O15379 whole entry): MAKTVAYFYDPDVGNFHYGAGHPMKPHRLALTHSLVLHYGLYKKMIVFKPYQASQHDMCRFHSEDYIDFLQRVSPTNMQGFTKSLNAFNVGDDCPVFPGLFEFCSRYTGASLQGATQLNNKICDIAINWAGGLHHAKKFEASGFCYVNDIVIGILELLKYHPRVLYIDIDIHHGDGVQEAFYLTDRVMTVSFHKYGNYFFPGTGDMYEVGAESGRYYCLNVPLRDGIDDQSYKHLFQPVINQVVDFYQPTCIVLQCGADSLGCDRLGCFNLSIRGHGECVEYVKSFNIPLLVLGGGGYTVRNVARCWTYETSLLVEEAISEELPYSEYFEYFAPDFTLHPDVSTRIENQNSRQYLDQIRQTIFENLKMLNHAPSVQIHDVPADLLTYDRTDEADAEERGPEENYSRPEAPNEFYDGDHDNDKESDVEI
Sequence of HDAC3 (Q9Y618 395-489 partner): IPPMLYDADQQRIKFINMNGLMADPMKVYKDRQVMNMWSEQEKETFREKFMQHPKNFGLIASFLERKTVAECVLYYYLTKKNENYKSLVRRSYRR
Sequence of HDAC2 (Q92769 whole entry): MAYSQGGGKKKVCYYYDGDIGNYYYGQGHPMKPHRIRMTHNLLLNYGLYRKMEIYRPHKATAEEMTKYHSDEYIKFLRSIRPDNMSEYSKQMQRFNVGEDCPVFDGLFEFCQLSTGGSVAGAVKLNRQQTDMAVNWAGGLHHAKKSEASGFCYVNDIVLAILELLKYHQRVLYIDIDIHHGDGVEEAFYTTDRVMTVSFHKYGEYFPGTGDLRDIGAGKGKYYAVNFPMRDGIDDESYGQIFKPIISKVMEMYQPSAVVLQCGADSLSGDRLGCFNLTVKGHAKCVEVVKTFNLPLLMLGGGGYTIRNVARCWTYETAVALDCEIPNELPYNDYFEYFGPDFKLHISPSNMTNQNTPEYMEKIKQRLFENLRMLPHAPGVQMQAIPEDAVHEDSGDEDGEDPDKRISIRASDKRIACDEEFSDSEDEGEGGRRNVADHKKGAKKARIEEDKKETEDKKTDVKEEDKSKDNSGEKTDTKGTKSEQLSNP
Sequence of hERG (Q12809 whole entry): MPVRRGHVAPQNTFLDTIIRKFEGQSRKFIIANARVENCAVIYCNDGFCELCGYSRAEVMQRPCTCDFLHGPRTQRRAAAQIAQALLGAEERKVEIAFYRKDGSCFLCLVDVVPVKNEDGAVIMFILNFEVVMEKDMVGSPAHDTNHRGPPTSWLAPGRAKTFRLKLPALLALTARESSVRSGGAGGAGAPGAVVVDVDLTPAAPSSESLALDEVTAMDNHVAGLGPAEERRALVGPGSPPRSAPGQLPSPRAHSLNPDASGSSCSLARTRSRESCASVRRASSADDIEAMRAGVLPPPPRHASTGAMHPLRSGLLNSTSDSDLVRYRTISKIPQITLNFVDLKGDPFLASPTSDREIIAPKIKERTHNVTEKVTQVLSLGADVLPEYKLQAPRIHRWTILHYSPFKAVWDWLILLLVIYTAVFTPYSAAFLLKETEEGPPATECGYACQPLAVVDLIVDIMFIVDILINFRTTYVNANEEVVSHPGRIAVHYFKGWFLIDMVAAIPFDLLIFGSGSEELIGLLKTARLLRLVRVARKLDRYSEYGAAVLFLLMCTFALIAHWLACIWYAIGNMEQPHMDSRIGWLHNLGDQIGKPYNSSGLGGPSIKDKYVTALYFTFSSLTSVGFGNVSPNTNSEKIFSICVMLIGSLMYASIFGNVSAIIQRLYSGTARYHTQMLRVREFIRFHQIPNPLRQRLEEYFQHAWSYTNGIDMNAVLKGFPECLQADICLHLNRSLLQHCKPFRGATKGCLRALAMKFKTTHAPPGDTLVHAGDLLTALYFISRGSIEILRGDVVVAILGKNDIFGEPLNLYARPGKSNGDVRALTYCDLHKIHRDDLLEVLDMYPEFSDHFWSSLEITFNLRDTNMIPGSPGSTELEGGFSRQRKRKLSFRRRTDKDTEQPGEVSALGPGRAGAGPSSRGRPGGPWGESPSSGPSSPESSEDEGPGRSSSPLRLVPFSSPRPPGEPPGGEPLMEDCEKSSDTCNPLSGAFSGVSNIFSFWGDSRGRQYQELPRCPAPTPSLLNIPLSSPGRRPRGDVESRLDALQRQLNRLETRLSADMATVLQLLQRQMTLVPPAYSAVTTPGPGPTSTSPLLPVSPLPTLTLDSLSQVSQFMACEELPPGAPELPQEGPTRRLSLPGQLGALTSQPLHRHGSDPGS

Structure (SMILES) | IC50 (HDAC1) [nM] | IC50 (HDAC2) [nM] | IC50 (HDAC3) [nM] | other results
Cc1nc(C(=O)Nc2cc(-c3cccs3)ccc2N)sc1N1CCNCC1 [Compound 041] | < 10 | 10 to 500 | 10 to 500 | 
Nc1ccc(-c2cc(F)cc(F)c2)cc1NC(=O)c1ccc(N2CCNCC2)nc1 [Compound 078] | > 500 | 10 to 500 | > 500 | 
Nc1ccccc1NC(=O)c1ccc2nc(N3CCNCC3)ccc2c1 [Compound 001] |  |  |  | IC50 (hERG; 34 °C, tail current): > 30000 nM
Nc1ccc(-c2ccco2)cc1NC(=O)c1nc(N2CCNCC2)cs1 [Compound 055] | > 500 | 10 to 500 | > 500 | 
Nc1ccc(-c2ccoc2)cc1NC(=O)c1cnc2cc(N3CCNCC3)ccc2c1 [Compound 025] |  |  |  | IC50 [2]: > 10000 nM
Nc1ccc(-c2ccccc2)cc1NC(=O)c1cc(N2CCNCC2)cs1 [Compound 069] | 10 to 500 | 10 to 500 | > 500 | 
Nc1ccc(-c2ccc(F)cc2)cc1NC(=O)c1nc(N2CCNCC2)cs1 [Compound 058] | 10 to 500 | 10 to 500 | 10 to 500 | 
Nc1ccc(-c2ccc(F)cc2)cc1NC(=O)c1ccc(N2CCNCC2)cn1 [Compound 038] | < 10 | 10 to 500 | 10 to 500 | IC50 (hERG; unit inferred): 2500 nM

The next lines start with results.

IC50 (HDAC1) [nM] | IC50 (HDAC2) [nM] | IC50 (HDAC3) [nM] | Structure (SMILES) | other results
< 10 | 10 to 500 | 10 to 500 | Nc1ccc(-c2ccc(F)cc2)cc1NC(=O)c1ccc(N2CCNCC2)nc1 [Compound 036] | bioavailability ([1]; 5 mg/kg, oral AUC to IV AUC, dose adjusted): 69.1%; IV clearance ([1]; IV 1 mg/kg): 7 mL/min/kg; AUC ([1]; PO 5 mg/kg): 7280 ng·h/mL; Cmax ([1]; PO 5 mg/kg): 500 ng/mL; half-life ([1]; PO 5 mg/kg, read-out: PO T½ (converted)): 7.3 h
< 10 | 10 to 500 | 10 to 500 | Nc1ccc(-c2ccncc2)cc1NC(=O)c1ccc(N2CCNCC2)s1 [Compound 067] | 
< 10 | < 10 | 10 to 500 | Nc1ccc(-c2ccoc2)cc1NC(=O)c1ncc(N2CCNCC2)s1 [Compound 051] | 
10 to 500 | 10 to 500 | 10 to 500 | Nc1ccc(-c2cccnc2)cc1NC(=O)c1cnc(N2CCNCC2)s1 [Compound 045] | 
< 10 | 10 to 500 | 10 to 500 | Nc1ccc(-c2ccncc2)cc1NC(=O)c1ncc(N2CCNCC2)s1 [Compound 052] | 
10 to 500 | 10 to 500 | > 500 | Nc1ccc(-c2ccoc2)cc1NC(=O)c1nc(N2CCNCC2)cs1 [Compound 056] | 
< 10 | 10 to 500 | 10 to 500 | CN1CCN(c2ccc(C(=O)Nc3cc(-c4ccccc4)ccc3N)cn2)CC1 [Compound 070] | 
< 10 | 10 to 500 | 10 to 500 | CN1CCN(c2cnc(C(=O)Nc3cc(-c4ccco4)ccc3N)s2)CC1 [Compound 054] | 
< 10 | 10 to 500 | 10 to 500 | Nc1ccc(-c2ccco2)cc1NC(=O)c1ncc(N2CCNCC2)s1 [Compound 050] | 
